Measurements: US5889007A, “10, 11-methanodibenzosuberane derivatives” (priority 1995, dated 1999)
Like-named read-outs stand apart in the source and are kept apart here.

What was measured:
[1] = Determination of Stability at Acid pH (HPLC, 0.01N HCl); format: physicochemical; settings: 0.01N HCl (pH 2), 37° C.
Description: Determination of Stability at Acid pH
Test compounds (15 μg) were dissolved in 3 ml of 0.01N HCl (pH 2) and incubated at 37° C. […] The test compounds and their degradation products were monitored by UV absorption at 240 nm. Disappearance of the parent compound was expressed as a percent peak height relative to time zero, from which t1/2 values were determined graphically, as follows.

[2] = cited from earlier work
[3] = system: multidrug resistance; settings: anticancer drug potentiator; cited from earlier work
[4] = cited from earlier work; remark: listed apart in the source
[5] = system: multidrug resistance; settings: compared with MS-073; cited from earlier work
[6] = system: drug-resistant malaria; settings: in vitro; cited from earlier work

Structure (SMILES): OC(COc1cccc2ncccc12)CN1CCN(C2c3ccccc3C3C(Cl)C3c3ccccc32)CC1 [(2R,S)-anti-5-{3-[4-(10,11-chloromethanodibenzosuber-5-yl)piperazine-1-yl]-2-hydroxypropoxy}quinoline]
- t1/2 [1]: > 72 h

Structure (SMILES): OC(COc1cccc2ncccc12)CN1CCN(C2c3ccccc3CCc3ccccc32)CC1 (stereo not shown) [MS-073]
- oral bioavailability ([2]; oral): poor oral bioavailability
- activity in in vitro testing [3]: highly active
- stability in solution [4]: instability problems in solution
- half-life [1]: 0.25 h

Structure (SMILES): O=C(C(c1ccccc1)c1ccccc1)N1CCN(CC(O)COc2cccc3ncccc23)CC1 (stereo not shown) [MS-209]
- oral bioavailability ([2]; in vivo, po): better stability and oral bioavailability
- effective doses [5]: higher effective doses

Structure (SMILES): OC(COc1cccc2ncccc12)CN1CCN(C2c3ccccc3C3C(c4ccccc42)C3(F)F)CC1 (racemic) [(2R,S)-5-{3-[4-(10,11-difluoromethanodibenzosuber-5-yl)piperazine-1-yl]-2-hydroxypropoxy}quinoline]
- half-life [1]: > 72 h

Structure (SMILES): OC(COc1cccc2ncccc12)CN1CCN([C@@H]2c3ccccc3[C@H]3C[C@H]3c3ccccc32)CC1 (relative stereo) [(2R,S)-anti-5-{3-[4-(10,11-methanodibenzosuber-5-yl)piperazin-1-yl]-2-hydroxypropoxy}quinoline]
- half-life [1]: 2.5 h

Structure (SMILES): COc1ccc(CCN(C)CCCC(C#N)(c2ccc(OC)c(OC)c2)C(C)C)cc1OC (stereo not shown) [verapamil]
- effect in treating drug-resistant malaria [6]: effective in vitro
